Experiments:
[1] = biological target: T1, KLK14 (Homo sapiens, UniProt Q9P0G3); experiment: Selectivity screening, KLK14; assay type: biochemical; details: 50 μM compound, without Fe3+; read-out: percentage of inhibition KLK14
T1 construct: purchased R&D Systems
T1 sequence (Q9P0G3 25-251): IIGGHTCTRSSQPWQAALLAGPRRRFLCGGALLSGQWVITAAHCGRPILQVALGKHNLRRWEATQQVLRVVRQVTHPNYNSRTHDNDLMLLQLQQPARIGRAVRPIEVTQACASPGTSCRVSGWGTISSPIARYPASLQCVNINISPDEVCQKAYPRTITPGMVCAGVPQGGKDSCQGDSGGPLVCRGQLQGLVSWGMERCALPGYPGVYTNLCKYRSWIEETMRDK

[2] = CCK8 cell viability assay, SH-SY5Y; assay type: cell-based; details: human, SH-SY5Y neuroblastoma cells, 25 and 50 μM, in absence or presence of iron (100 µM FAC), read-out: percentage of cell viability
Experimental: (§1) Human neuroblastoma cell line (SH-SY5Y) was purchased at American Type Culture Collection
(§2) Both cell lines were cultured in Dulbecco’s Modified Eagle Medium (DMEM)
(§3) containing 10% heat inactivated fetal bovine serum (FBS), 1% Penicillin/Streptomycin, 10 mM
(§4) Sodium Pyruvate, 2 mM L-Glutamine and 4,5 g/L D-glucose at 37°C, in a 5% humidified
(§5) incubator. Cells were cultivated until 80% confluence in flasks then were plated in 96-well
(§6) plates. For this experiment, SH-SY5Y were used at 10th passage and HMC3 at 13th. SH-SY5Y
(§7) cells were seeded at a density of 3x10^4 cells/well and HMC3 at a density of 10^4 cells/well. After
(§8) seeding, cells were left in complete medium overnight to adhere to the plates. After that, cells
(§9) were treated using inhibitors solubilized in DMSO at stock concentrations of 2,5 mM or 5 mM
(§10) with or without 10 mM iron. Iron solution was prepared by using FAC (Ferric Ammonium
(§11) Citrate, Sigma®) at stock concentration of 25 mM. After 24h of treatment, cell viability was
(§12) assessed with the CCK8 (Cell-Counting Kit 8) from TargetMol. After treatments, 10 µL of CCK8
(§13) reagent was diluted in 90 µL of complete medium and added to each well. After 3 hours at
(§14) 37°C, cell viability was assessed by absorbance measurement at 460 nm. Each viability assay
(§15) is the mean of two independent experiments performed in triplicates.
(§16) treated for 24h with the two selected concentrations of inhibitor (25 µM or 50 µM)
(§17) preincubated or not with 100 µM of FAC. The data are the mean of two independent
experiments performed in triplicates.

[3] = test system: KLK's of the CNS triad (KLK1‐KLK6‐KLK8); experiment: Reversibility analysis by dilution after preincubation; assay type: biochemical, human; details: 100-fold dilution after 15 min preincubation
Experimental: Aliquots of reaction mixtures (1 μL) were added to 99 μL of buffer containing the fluorogenic substrate (experimental conditions identical to the routine protocol used for a given enzyme). The mechanism of inhibition was determined by varying substrate and inhibitor concentrations, the type of inhibition and inhibition parameter (Ki or Ki′) are determined by Dixon's plots.

[4] = CCK8 cell viability assay, HMC3; assay type: cell-based; details: human, HMC3 microglial cells; HMC3, 24h, 25 and 50 μM, in absence or presence of iron (100 µM FAC); read-out: percentage of cell viability
Experimental: as §1, §2, §3, §4, §5, §6, §7, §8, §9, §10, §11, §12, §13, §14, §15, §16, §17
experiments performed in triplicates.

[5] = biological target: T2, KLK11 (Homo sapiens, UniProt Q9UBX7); experiment: Selectivity screening, KLK11; assay type: biochemical; details: 50 μM compound, without Fe3+; read-out: percentage of inhibition KLK11
T2 construct: purchased R&D Systems
T2 sequence (Q9UBX7 54-282): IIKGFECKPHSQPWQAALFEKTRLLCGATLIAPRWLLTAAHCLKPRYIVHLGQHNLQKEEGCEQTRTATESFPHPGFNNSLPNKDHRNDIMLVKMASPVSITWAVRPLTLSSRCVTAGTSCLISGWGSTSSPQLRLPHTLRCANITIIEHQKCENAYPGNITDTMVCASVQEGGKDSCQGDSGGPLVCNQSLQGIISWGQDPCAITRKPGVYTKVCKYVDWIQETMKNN

[6] = biological target: KLK7 (Homo sapiens, UniProt P49862); experiment: Selectivity screening, KLK7; details: read-out: percentage of inhibition KLK7
KLK7, sequence (P49862 30-253): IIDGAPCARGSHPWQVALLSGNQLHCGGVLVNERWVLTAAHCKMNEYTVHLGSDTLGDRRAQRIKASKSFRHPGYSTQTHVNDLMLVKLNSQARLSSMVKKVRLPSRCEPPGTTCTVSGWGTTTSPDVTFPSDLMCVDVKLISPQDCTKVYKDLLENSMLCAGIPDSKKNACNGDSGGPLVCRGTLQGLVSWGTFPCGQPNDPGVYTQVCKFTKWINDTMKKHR
Experimental: (§18) All enzyme stocks were stored at −20 °C and purchased from R&D Systems as proenzymes (KLK6, KLK8, KLK13) or as mature and active forms (KLK5). Activation of KLK6, KLK8, and KLK13 is performed in optimized buffers. The activation reaction is initiated by Lysyl‐Endopeptidase at 2.5 mU mL^−1 (Wako Bioproducts). The activation reaction is stopped by diluting the enzyme to 0.5 μg mL^−1 in assay buffer (50 mM Tris, 1 M Citrate, 0.05% w/v Brij‐35, pH 8) to obtain an active enzyme stock. KLK1 was purchased from R & D Systems as pro‐KLK1. Activation of KLK1 is performed in 50 mM Tris‐HCl, 10 mM CaCl2, 150 mM NaCl, 0.05% Brij‐35, pH 7.5. The activation reaction is initiated by bacterial thermolysin at 0.4 μg mL^−1 (Sigma‐Aldrich) and stopped by addition of 100 mM EDTA (Sigma‐Aldrich) to obtain an active KLK1 stock at the same concentration of 100 μg mL^−1. The activation reactions for KLK7 are initiated bacterial thermolysin at 0.4 μg mL^−1 (Sigma‐Aldrich) and stopped by addition of 100 mM EDTA (Sigma‐Aldrich) to obtain active stocks. All enzyme stocks were stored at −20 °C. H‐PFR‐AMC (KLK1), Boc‐VPR‐AMC (KLK5, KLK8, KLK13), Boc‐QAR‐AMC (KLK6, Plasmin), substrates were purchased from Bachem. MeO‐Suc‐RPY‐AMC (KLK7) substrate was purchased from AAT Bioquest. Plasmin (Sigma‐Aldrich) was purchased in mature and active form.
(§19) Compounds were screened on KLKs using a BMG Fluostar microplate reader (black 96‐well microplates). […]
(§20) The proteases are first preincubated for 15 min with each compound (50 and 100 μM) or with DMSO (<2%, negative control) in a total volume of 85 μL of 50 mM Tris buffer, 1 M citrate, 0.05% Brij‐35, pH 7, 37 °C. […] The release of the AMC fluorescent group is detected using the following wavelengths: λex = 360 nm and λem = 460 nm. The percent inhibition is calculated from Equation (1) where V 0 is the initial rate of the DMSO control, the initial rate in the presence of the inhibitor V i. […]

[7] = biological target: T3, KLK8 (Homo sapiens, UniProt O60259); experiment: KLK8 fluorogenic enzyme inhibition assay (Boc-VPR-AMC); details: for Ki′ KLK8 / Type of inhibition KLK8: Dixon plot, without Fe3+; for Ki′ KLK8: 100 μM substrate; for inhibition at 50 µM: read-out: percentage of inhibition KLK8
T3 sequence (O60259 33-260): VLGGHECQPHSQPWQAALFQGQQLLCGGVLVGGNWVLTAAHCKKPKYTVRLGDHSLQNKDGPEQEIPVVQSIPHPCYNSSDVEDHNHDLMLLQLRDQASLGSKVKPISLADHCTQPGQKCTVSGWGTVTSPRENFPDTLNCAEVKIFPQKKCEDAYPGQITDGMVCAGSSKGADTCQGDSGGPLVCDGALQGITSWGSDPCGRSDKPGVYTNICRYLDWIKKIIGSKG
Experimental: (§21) All enzyme stocks were stored at −20 °C and purchased from R&D Systems as proenzymes (KLK6, KLK8, KLK13) or as mature and active forms (KLK5). Activation of KLK6, KLK8, and KLK13 is performed in optimized buffers. The activation reaction is initiated by Lysyl‐Endopeptidase at 2.5 mU mL^−1 (Wako Bioproducts). The activation reaction is stopped by diluting the enzyme to 0.5 μg mL^−1 in assay buffer (50 mM Tris, 1 M Citrate, 0.05% w/v Brij‐35, pH 8) to obtain an active enzyme stock. KLK1 was purchased from R & D Systems as pro‐KLK1. Activation of KLK1 is performed in 50 mM Tris‐HCl, 10 mM CaCl2, 150 mM NaCl, 0.05% Brij‐35, pH 7.5. The activation reaction is initiated by bacterial thermolysin at 0.4 μg mL^−1 (Sigma‐Aldrich) and stopped by addition of 100 mM EDTA (Sigma‐Aldrich) to obtain an active KLK1 stock at the same concentration of 100 μg mL^−1. […] All enzyme stocks were stored at −20 °C. H‐PFR‐AMC (KLK1), Boc‐VPR‐AMC (KLK5, KLK8, KLK13), Boc‐QAR‐AMC (KLK6, Plasmin), substrates were purchased from Bachem. […] Plasmin (Sigma‐Aldrich) was purchased in mature and active form.
(§22) Compounds were screened on KLKs using a BMG Fluostar microplate reader (black 96‐well microplates). Hit compounds were screened on the selected group of enzymes using optimized concentrations and buffers (KLK1 0.8 nM, KLK4 10 nM, KLK5 0.2 nM; KLK6 1.9 nM; KLK7 6 nM; KLK8 0.2 nM; KLK11 5.2 nM, KLK13 0.47 nM, KLK14 2.5 nM, plasmin 3.3 nM, thrombin 0.1 nM, tissue‐plasminogen activator (tPA) 0.1 nM, matriptase 1 nM, cathepsin L 2 nM) either in absence or prior preincubation in the presence of 100 μM of Fe^3+.
(§23) The proteases are first preincubated for 15 min with each compound (50 and 100 μM) or with DMSO (<2%, negative control) in a total volume of 85 μL of 50 mM Tris buffer, 1 M citrate, 0.05% Brij‐35, pH 7, 37 °C. The reaction is triggered by the appropriate substrate at the optimized concentration in 15 μL of 50 mM Tris buffer, 1 M citrate, 0.05% Brij‐35, pH 8 (H‐PFR‐AMC 100 μM; Boc‐VPR‐AMC 100 μM; Boc‐QAR‐AMC 100 μM; Meo‐Suc‐RPY‐AMC 150 μM, Z‐LR‐AMC 100 μM, Z‐GGR‐AMC 100 μM) and followed for 30 min at 37 °C. […] The release of the AMC fluorescent group is detected using the following wavelengths: λex = 360 nm and λem = 460 nm. The percent inhibition is calculated from Equation (1) where V 0 is the initial rate of the DMSO control, the initial rate in the presence of the inhibitor V i. (1) %inhibition=(1−(vi/v0))×100
(§24) The equation is entered in the Kaleidagraph 4.5 software for curve fitting f([I]) = % Inhibition, where [I] is the inhibitor concentration.
(§25) The mechanism of inhibition was determined by varying substrate and inhibitor concentrations, the type of inhibition and inhibition parameter (Ki or Ki′) are determined by Dixon's plots.

[8] = biological target: T4, KLK4 (Homo sapiens, UniProt Q9Y5K2); experiment: Selectivity screening, KLK4; assay type: biochemical; details: 50 μM compound, without Fe3+; read-out: percentage of inhibition KLK4
T4 construct: purchased R&D Systems
T4 sequence (Q9Y5K2 31-254): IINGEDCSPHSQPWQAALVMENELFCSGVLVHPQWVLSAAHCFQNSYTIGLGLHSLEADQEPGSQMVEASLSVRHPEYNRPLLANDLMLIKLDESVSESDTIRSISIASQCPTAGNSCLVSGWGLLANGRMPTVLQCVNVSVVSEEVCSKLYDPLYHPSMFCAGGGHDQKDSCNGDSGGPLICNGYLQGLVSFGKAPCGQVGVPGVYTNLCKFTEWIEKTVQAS

[9] = Calcein transchelation (calcein release) assay; assay type: physicochemical; details: calcein 100 nM, 4 h at room temperature; estimation, assay not fully quantitative; read-out: Apparent affinity (pseudo‐affinity constant Kd for Fe3+)
[10] = biological target: T5, KLK5 (Homo sapiens, UniProt Q9Y337); experiment: Selectivity screening, KLK5; details: read-out: percentage of inhibition KLK5
T5 sequence (Q9Y337 67-293 limits assumed): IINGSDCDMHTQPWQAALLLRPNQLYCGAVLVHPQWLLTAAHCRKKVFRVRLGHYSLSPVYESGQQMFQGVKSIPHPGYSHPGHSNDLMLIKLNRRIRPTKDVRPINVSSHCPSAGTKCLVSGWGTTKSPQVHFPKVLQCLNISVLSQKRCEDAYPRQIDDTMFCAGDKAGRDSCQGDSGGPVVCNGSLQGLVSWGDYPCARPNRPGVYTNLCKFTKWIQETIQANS
Experimental: as §18, §22, §23

[11] = test system: targeted KLKs (KLK1, KLK6, KLK8); experiment: Impact of preincubated compound (50 μM) and Fe3+ (100 μM) on targeted KLKs; assay type: biochemical, human; details: compound 50 μM preincubated with Fe3+ 100 μM
Experimental: Next, we evaluated the impact of preincubated mixtures of each compound at 50 μM and Fe^3+ at 100 μM to model an iron overload condition on targeted KLKs (Figure S5, Supporting Information).

[12] = biological target: KLK1 (Homo sapiens, UniProt P06870); experiment: KLK1 fluorogenic enzyme inhibition assay (H-PFR-AMC); details: for inhibition at 50 µM: read-out: percentage of inhibition KLK1; for IC50: IC50 KLK1, 15 min preincubation at 37 °C, NI = not a hit (not above 50% inhibition at 50 μM)
KLK1, sequence (P06870 25-262): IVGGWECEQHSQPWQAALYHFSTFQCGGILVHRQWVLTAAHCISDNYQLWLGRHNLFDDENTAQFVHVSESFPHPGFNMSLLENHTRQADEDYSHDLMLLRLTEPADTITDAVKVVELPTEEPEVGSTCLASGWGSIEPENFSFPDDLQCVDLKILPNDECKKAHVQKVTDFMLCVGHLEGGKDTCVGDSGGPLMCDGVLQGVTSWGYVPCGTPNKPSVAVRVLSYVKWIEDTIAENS
Experimental: as §21, §22, §23, §24, §25

[13] = biological target: Plasmin (Homo sapiens, UniProt P00747); experiment: Selectivity screening, plasmin; details: read-out: percentage of inhibition Plasmin
Plasmin, sequence (P00747 581-810 limits assumed, species assumed): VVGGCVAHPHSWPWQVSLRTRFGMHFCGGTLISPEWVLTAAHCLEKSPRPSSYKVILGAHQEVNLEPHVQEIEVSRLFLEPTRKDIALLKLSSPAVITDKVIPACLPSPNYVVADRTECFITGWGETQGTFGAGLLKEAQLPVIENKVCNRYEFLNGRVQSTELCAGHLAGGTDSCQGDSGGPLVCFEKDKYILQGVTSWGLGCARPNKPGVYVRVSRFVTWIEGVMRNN
Plasmin, sequence (P00747 97-580 partner limits assumed, species assumed): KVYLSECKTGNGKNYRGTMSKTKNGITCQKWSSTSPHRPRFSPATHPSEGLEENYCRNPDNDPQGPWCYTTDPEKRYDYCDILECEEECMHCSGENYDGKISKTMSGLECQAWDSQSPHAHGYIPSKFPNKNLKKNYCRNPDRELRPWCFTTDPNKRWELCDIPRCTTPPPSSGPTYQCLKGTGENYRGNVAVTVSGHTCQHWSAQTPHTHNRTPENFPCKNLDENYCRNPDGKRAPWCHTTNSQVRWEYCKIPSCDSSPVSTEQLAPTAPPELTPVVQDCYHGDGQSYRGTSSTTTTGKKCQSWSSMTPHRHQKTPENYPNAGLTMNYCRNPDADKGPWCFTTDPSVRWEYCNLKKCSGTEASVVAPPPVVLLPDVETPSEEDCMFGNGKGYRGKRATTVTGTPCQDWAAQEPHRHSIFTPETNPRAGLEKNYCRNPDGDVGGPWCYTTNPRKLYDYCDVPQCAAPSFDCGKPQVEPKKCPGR
Experimental: All enzyme stocks were stored at −20 °C and purchased from R&D Systems as proenzymes (KLK6, KLK8, KLK13) or as mature and active forms (KLK5). Activation of KLK6, KLK8, and KLK13 is performed in optimized buffers. The activation reaction is initiated by Lysyl‐Endopeptidase at 2.5 mU mL^−1 (Wako Bioproducts). The activation reaction is stopped by diluting the enzyme to 0.5 μg mL^−1 in assay buffer (50 mM Tris, 1 M Citrate, 0.05% w/v Brij‐35, pH 8) to obtain an active enzyme stock. KLK1 was purchased from R & D Systems as pro‐KLK1. Activation of KLK1 is performed in 50 mM Tris‐HCl, 10 mM CaCl2, 150 mM NaCl, 0.05% Brij‐35, pH 7.5. […]
as §19, §20

[14] = biological target: Cathepsin L (Homo sapiens, UniProt P07711); experiment: Selectivity screening, cathepsin L; assay type: biochemical; details: 50 μM compound, without Fe3+; read-out: percentage of inhibition Cathepsin L
Cathepsin L, sequence (P07711 114-333, species assumed): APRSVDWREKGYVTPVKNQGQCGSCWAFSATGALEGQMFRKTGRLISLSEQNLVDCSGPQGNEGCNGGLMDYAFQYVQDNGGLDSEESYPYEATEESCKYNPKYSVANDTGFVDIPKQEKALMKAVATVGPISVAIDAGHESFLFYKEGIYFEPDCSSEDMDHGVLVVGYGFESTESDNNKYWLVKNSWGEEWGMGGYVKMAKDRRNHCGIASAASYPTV

[15] = biological target: T6, KLK13 (Homo sapiens, UniProt Q9UKR3); experiment: Selectivity screening, KLK13; details: read-out: percentage of inhibition KLK13
T6 sequence (Q9UKR3 26-277 limits assumed): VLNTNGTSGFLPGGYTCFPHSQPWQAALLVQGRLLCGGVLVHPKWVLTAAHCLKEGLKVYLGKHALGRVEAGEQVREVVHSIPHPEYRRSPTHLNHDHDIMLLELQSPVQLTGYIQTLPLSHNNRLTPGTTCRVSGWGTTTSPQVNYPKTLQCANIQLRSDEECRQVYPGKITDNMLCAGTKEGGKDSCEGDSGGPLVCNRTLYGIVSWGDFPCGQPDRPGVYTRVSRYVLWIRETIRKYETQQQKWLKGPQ
Experimental: as §18, §22, §23

[16] = biological target: Thrombin (Homo sapiens, UniProt P00734); experiment: Selectivity screening, thrombin; assay type: biochemical; details: 50 μM compound, without Fe3+; read-out: percentage of inhibition Thrombin
[17] = biological target: KLK6 (Homo sapiens, UniProt Q92876); experiment: KLK6 fluorogenic enzyme inhibition assay (Boc-QAR-AMC)
Experimental: as §21, §22, §23, §24, §25

[18] = UV–vis spectroscopy of Fe3+ chelation and complex stability; assay type: physicochemical; details: activity buffer pH 7.4, 1:1 ratio, t = 0 to 240 min
Experimental: UV–vis analysis of DFX was first performed to monitor the chelation process and the stability of the Fe^3+ complex over time at a 1:1 ratio, typically representing the duration of inhibition assay (30 min to 4 h) (Figure S1, Supporting Information). In these conditions of pH (7.4) and ligand‐to‐iron ratio and according to Steinhauser et al. the main species in solution is assigned to [Fe(DFX)2]^3−.^[ [49] ^] Indeed, we aimed to explore not only the chelation properties but also the impact of the chelated species on enzyme inhibition.
2.c. Chelation properties, iron interactions, and selectivity profiles of selected compounds targeting KLK activity.
Figure S2: Stability of the chelated species as monitored by spectrophotometry. UV/VIS spectra of molecules alone using activity buffer at pH 7.4 (in orange at 500 µM) or in the presence of FeCl3 (ratio of 1:1) at different times (t = 0 in red, 30 min in black, 60 min in blue and 240 min in green). The purple trace corresponds to iron only at 500 µM All data are representative of 2 independent experiments performed in duplicate. […]

SMILES | inhibition at 50 µM [1] [%] | viability at 24 h [2] [%] | reversibility and time dependence of inhibition [3] | viability at 24 h [4] [%] | inhibition at 50 µM [5] [%] | inhibition at 50 µM [6] [%] | IC50 [7] [µM] | Ki′ KLK8 [7] [µM] | Type of inhibition KLK8 [7] | inhibition at 50 µM [7] [%] | inhibition at 50 µM [8] [%] | Kd [9] [pM] | inhibition at 50 µM [10] [%] | change of inhibitory activity in the presence of iron [11] | inhibition at 50 µM [12] [%] | inhibition at 50 µM [15] [%] | inhibition at 50 µM [16] [%] | IC50 [12] [µM] | other results
O=C(O)c1cccc(-n2nc(-c3ccccc3O)nc2-c2ccccc2O)c1 [3b] | 95.1 | > 80 | reversible and time‐independent inhibitors | > 80 | 90.9 | 88.1 | 21.4 ± 0.4 | 18 | Uncompetitive | 62.1 | 83.8 | 63 ± 11 | 98.1 | – | – | – | – | – | –
CC(C)(C)n1nc(-c2ccccc2O)nc1-c1ccccc1O [3d] | – | – | – | – | – | – | > 50 | – | – | – | – | 2150 ± 110 | – | do not show an increased inhibitory activity in the presence of iron | – | – | – | – | –
O=C(NC(Cc1c[nH]c2ccccc12)C(=O)O)c1ccc(-n2nc(-c3ccccc3O)nc2-c2ccccc2O)cc1 (stereo not drawn) [3lb] | 98.8 | > 80 | reversible and time‐independent inhibitors | > 80 | 81.4 | 90.5 | 27.1 ± 1.1 | – | – | 50.2 | 99.7 | – | 98.2 | – | 90.1 | 98.1 | – | – | inhibition at 50 µM [13]: 60.5%; inhibition at 50 µM [14]: < 50%; Ki [7]: 12 µM
O=C(O)C1CCCN1C(=O)c1ccc(-n2nc(-c3ccccc3O)nc2-c2ccccc2O)cc1 (stereo not drawn) [3mb] | 89.7 | > 80 | reversible and time‐independent inhibitors | > 80 | 76.7 | 70.1 | 25.9 ± 0.7 | 25 | uncompetitive inhibition | 63.1 | 77.3 | 29 ± 17 | 95.1 | – | – | 85.2 | 61.1 | – | –
Oc1ccc(-n2nc(-c3ccccc3O)nc2-c2ccccc2O)cc1 [3r] | 62.2 | > 80 | reversible and time‐independent inhibitors | > 80 | – | – | > 50 | – | – | – | 84.3 | 62 ± 14 | 85.5 | – | 79.1 | 98.3 | < 50 | 16.4 ± 1.3 | Ki [12]: 29 µM; Type of inhibition KLK1 ([12]; Dixon plot, without Fe3+): Noncompetitive; inhibition at 50 µM ([17]; read-out: percentage of inhibition KLK6): < 50%
CC(=O)Oc1ccccc1-c1nc(-c2ccccc2OC(C)=O)n(-c2ccc(C(=O)O)cc2)n1 [compound 22] | – | – | – | – | – | – | > 50 | – | – | – | – | – | – | do not show an increased inhibitory activity in the presence of iron | – | – | – | > 50 | UV–vis spectrum in the presence of FeCl3 (iron complex formation) [18]: no changes in the absorption spectra; IC50 [17]: > 50 µM
